Key:
[1] = pH 5
Procedure: Referring to FIG. 4, elution of DAA-I from the TEOS coated stents was measured by analyzing the amount of DAA-I found in 0.1% solutol in ammonium acetate buffer, pH 5.0, as a function of time, when the stents were incubated in this medium at 37° C. The amount of DAA-I was determined by integrating the DAA-I peak in high performance liquid chromatography (HPLC) profiles using a Altima C-8 column (Altech, Chicago Ill.) and comparison to standard curves.

[2] = Elution of DAA-I from stents coated with increasing amounts of TEOS; type: physicochemical; settings: 0.1-0.5M TEOS with constant DAA-I 1.25 mg/mL; effect of increasing TEOS to drug molar ratio; 9 mm stents; FIGS. 5A-5B
Procedure: To explore the effects of increasing the amount of TEOS on the rate of elution of DAA-I, increasing amounts, from 0.1-0.5M of TEOS were added to a constant amount of DAA-I (1.25 mg/mL) according to the methods and protocols described above. The stents (9 mm, n=4) were sprayed with each of the solutions as described above, weighed, and the amounts DAA-I eluted over a 24 hour period were compared.

rate of DAA-I elution [1]: slow the rate of DAA-I elution
Substance: des-aspartate angiotensin I [DAA-I]
rate of release of the drug into aqueous solution [2]: significantly delayed the rate of release

From patent publication US8097269B2, “Bioactive material delivery systems comprising sol-gel compositions” (Celonova Biosciences, Inc., priority 2004, dated 2012)
